Experimental data reported in paper PMC10515486, “Peptide Bispecifics Inhibiting HIV-1 Infection by an Orthogonal Chemical and Supramolecular Strategy” (Bioconjugate Chemistry, 2023).
Non-standard residues stand in square brackets, D forms with d. Residues, ends and D or L forms follow the SMILES beside them. No end group written: not given here. *: point of attachment. X1 = O=C(CCCC[C@@H]1SC[C@@H]2NC(=O)N[C@@H]21)NCCOCCOCCOCCOCCOCCOCCOCCOCCOCCOCCOCCNC(=O)CCN1C(=O)CC(*)C1=O

What was measured:
X4-tropic HIV-1 = test: Replication kinetics in human PBMCs, X4-tropic HIV-1; type: cell-based; details: activated PBMCs from three human donors; 1 μM compound, AMD3100 1 μM, MVC 50 nM; supernatants titrated on TZM-bl cells
Description: (§1) (A) TZM-bl cells were pretreated with the indicated amounts of the single or multivalent compound and infected with X4- or R5-tropic HIV-1. Three days post-infection, a β-galactosidase assay was performed. […] (B) Human PBMCs were isolated, stimulated, and pretreated with 1 μM of the indicated single- or multivalent compound, Maraviroc (MVC/50 nM) or AMD3100 (1 μM). The cells were infected with X4- or R5-tropic HIV-1. Infectious virus yield was determined by infection of TZM-bl reporter cells with PBMC culture supernatants obtained at the indicated day post-infection (dpi). […]

R5-tropic HIV-1 NL4-3 = test system: R5-tropic HIV-1 NL4-3
Excerpt: (§2) TZM-bl reporter cells were pretreated with increasing concentrations of the mono- and multivalent compounds and subsequently infected with the well-characterized X4-tropic HIV-1 NL4-3 molecular clone or an R5-tropic derivative thereof that differs in the V3 region of the viral envelope glycoprotein from the parental virus (Figure 5A).[39]
as §1
(§3) in supplemented RPMI-1640 and incubated with Human T-Activator CD3/CD28 […]
(§4) Virus stocks were generated by transient transfection of HEK293T cells using the calcium-phosphate precipitation method. One day before transfection, 0.8 x 10^6 HEK293T cells were seeded in 6 -well plates (Greiner Bio -one, Frickenhausen, Germany). At a confluence of 60-80% cells were used for transfection. For the […]

X4-tropic HIV-1 NL4-3 = details: read-out: IC50 X4; TZM-bl cells pretreated, infected with X4-tropic HIV-1 NL4-3; β-galactosidase 3 days p.i.; molarity of biotin-conjugated peptide or of SAv construct (per construct); nonlinear regression
Excerpt: as §2, §1, §3, §4

wild-type HIV-1 NL4-3 = details: Figure 2B
Description: (B) Inhibition of wild-type HIV-1 NL4-3 by single-cysteine VIRIP derivatives.

R5-tropic HIV-1 = test: Replication kinetics in human PBMCs, R5-tropic HIV-1; type: cell-based; details: activated PBMCs from three human donors; 1 μM compound, AMD3100 1 μM, MVC 50 nM; supernatants titrated on TZM-bl cells
Description: Figure 5 Antiviral activity of single- and multivalent VIR-102C9/EPI-X4 JM#173-C conjugates. Concentrations indicate the molarity of the tested biotin-conjugated peptides or of the SAv conjugates with four copies of mono- or bispecific peptides respectively. (A) TZM-bl cells were pretreated with the indicated amounts of the single or multivalent compound and infected with X4- or R5-tropic HIV-1. Three days post-infection, a β-galactosidase assay was performed. IC50 values are given in the SI (Table S2). (B) Human PBMCs were isolated, stimulated, and pretreated with 1 μM of the indicated single- or multivalent compound, Maraviroc (MVC/50 nM) or AMD3100 (1 μM). […] Infectious virus yield was determined by infection of TZM-bl reporter cells with PBMC culture supernatants obtained at the indicated day post-infection (dpi). […] They are assigned to (14) only because they sit in the plots with the purple curve, matched to the colour legend. / 14, IC50 (X4): small print, 0.026 could be 0.028 or 0.025 / 14, IC50 (R5): small print, 0.039 could be 0.038 or 0.089 / Substance label in the legend reads 'SAv-VIR-1029C-', but panel B prints 'SAv-VIR-102C9'. […]
Cell viability was determined by the Cell Titer-Glo 2.0 Cell Viability Assay according to the manufacturer’s instructions. […]
After 48 h, cell viability was assessed by measuring ATP levels in cells lysates with the commercially available Cell Titer-Glo kit. […]

HIV-1 NL4-3 = test: TZM-bl infection with HIV-1 NL4-3 preincubated with carrier compounds; type: cell-based; details: virus preincubated with increasing amounts of carrier; β-galactosidase 3 days p.i.; three biological replicates
Description: To determine the infectivity of virions produced in infected human |PBMCs, TZM-bl cells were seeded in 96 -well plates at a density of 10,000 cells/well and infected after overnight incubation with the supernatants collected from the PBMC cultures. Three days p.i., viral infectivity was determined using a galactosidase screen kit from Tropix as recommended by the manufacturer. β-Galactosidase activities were quantified as relative light units (RLU) per second with an Orion Microplate luminometer (Berthold) . […]
infected with HIV-1 NL4-3 that was preincubated with increasing amounts of the carrier compounds Avidin, Neutravidin or Streptavidin. Three days post infection , a β-galactosidase assay was performed.
Each dot represents three biological replicates ± SEM.
(1 picture or pasted object on this page, not shown here)

For `c1cc(CN2CCCNCCNCCCNCC2)ccc1CN1CCCNCCNCCCNCC1` [AMD3100], the “replication of X4-tropic HIV-1 in PBMCs (infectious virus yield)” value (X4-tropic HIV-1) was “blocked”.
`CC[C@H](C)[C@H](NC(=O)[C@H](CO)NC(=O)[C@H](CCSC)NC(=O)[C@@H]1CCCN1C(=O)[C@@H](NC(=O)[C@H](C)NC(=O)[C@H](CCC(=O)O)NC(=O)[C@@H](N)CC(C)C)[C@@H](C)CC)C(=O)N[C@@H](CSC1CC(=O)N(CCC(=O)NCCOCCOCCOCCOCCOCCOCCOCCOCCOCCOCCOCCNC(=O)CCCC[C@@H]2SC[C@@H]3NC(=O)N[C@@H]32)C1=O)C(=O)N1CCC[C@H]1C(=O)N[C@@H](CCC(=O)O)C(=O)N[C@H](C(=O)N[C@@H](Cc1ccccc1)C(=O)N[C@@H](Cc1ccccc1)C(=O)N[C@@H](CC(N)=O)C(=O)N[C@@H](CCCCN)C(=O)N1CCC[C@H]1C(=O)N[C@@H](Cc1ccccc1)C(=O)N[C@H](C(=O)N[C@@H](Cc1ccccc1)C(=O)O)C(C)C)C(C)C` (stereo partly shown) [compound 5] (H-LEAIPMSIC(X1)PEVFFNKPFVF-OH; N-terminus and C-terminus assumed) gave an IC50 (R5-tropic HIV-1 NL4-3; read-out: IC50 R5, TZM-bl cells pretreated, infected with R5-tropic HIV-1 NL4-3 derivative, β-galactosidase 3 days p.i., molarity of biotin-conjugated peptide or of SAv construct (per construct)) of 1200 nM and an IC50 (X4-tropic HIV-1 NL4-3) of 1130 nM.
`CC[C@@H](C)[C@@H](N)C(=O)N[C@@H](CC(C)C)C(=O)N[C@@H](CCCNC(=N)N)C(=O)N[C@@H](Cc1c[nH]c2ccccc12)C(=O)N[C@@H](CO)C(=O)N[C@@H](CCCNC(=N)N)C(=O)N[C@@H](CCCCN)C(=O)N[C@@H](CSC1CC(=O)N(CCC(=O)NCCOCCOCCOCCOCCOCCOCCOCCOCCOCCOCCOCCNC(=O)CCCC[C@@H]2SC[C@@H]3NC(=O)N[C@@H]32)C1=O)C(N)=O` (stereo partly shown) [compound 6] (H-[dI]LRWSRKC(X1)-NH2; N-terminus and C-terminus assumed) was tested, and the “activity against the R5-tropic derivative (in words)” value (R5-tropic HIV-1 NL4-3; TZM-bl cells) was “inactive”.
Molecule LEAIPMSICPEVFFNKPFVF [VIR-102C9] has an IC50 (wild-type HIV-1 NL4-3) of 200 nM.
In the case of Maraviroc, the “replication of R5-tropic HIV-1 in PBMCs (infectious virus yield)” value (R5-tropic HIV-1) is reported as “prevented”.
“Streptavidin: tetrameric biotin-binding protein, carrier” was tested, and the “effect on HIV-1 infection efficiency” value (HIV-1 NL4-3) was “do not alter”.
